Measured values reported in paper PMC6222509, “Dibasic Derivatives of Phenylcarbamic Acid against Mycobacterial Strains: Old Drugs and New Tricks?” (Molecules : A Journal of Synthetic Chemistry and Natural …, 2018).
Values after ≈ are worked out from the molar mass of the structure shown. Where two headings read alike, the source gives them in different places.

Columns and labels:
[1] = system: M. kansasii DSM 44162 (MK DSM); test: in vitro antimycobacterial MIC, broth dilution micromethod in Middlebrook 7H9; assay type: cell-based; conditions: Mycobacterium kansasii, DSM 44162 / DSM 7, 168 h
[2] = surface tension, drop count method, Traube stalagmometer; assay type: physicochemical; conditions: aqueous solution c = 2.0 × 10^−3 M, 21 °C; water γ = 0.07259 N/m
Experimental: Surface tension (relative surface activity; γ) of aqueous solutions of the compounds 1a–p (c = 2.0 × 10^−3 M) was determined by a drop count technique using a Traube stalagmometer. All evaluated substances were able to decrease surface tension of water (γ = 0.07259 N/m) at 21 °C.
Surface tension (relative surface activity; γ) of the derivatives 1a–p was determined by a drop count method using a glassy Traube stalagmometer (Kavalier Glass, Prague, Czech Republic). Number of drops of compounds’ and reference solutions were counted between upper and lower marks of the stalagmometer. Aqueous solutions of the molecules 1a–p were prepared with distilled, deionized water (c = 2.0 × 10^−3 M). […] The drops were allowed to form at constant temperature 21 °C. The experimental procedure was described in a paper. Current measurements were done in six replicates and average γ values (in N/m units) were reported (Table 1).

[3] = electronic properties, UV/Vis spectrophotometry of methanolic solutions; assay type: physicochemical; conditions: methanolic solution c = 8.0 × 10^−5 M; for log ε2 (Ch-T): charge-transfer maximum λ2 (Ch-T) = 236–238 nm; for log ε1: λ1 = 208–210 nm; for log ε3: λ3 = 278–280 nm
Text: Electronic properties of the molecules 1a–p (Table 1) were characterized by logarithms of molar absorption coefficients (log ε) of their methanolic solutions (c = 8.0 × 10^−5 M) investigated in the UV/Vis region of an electromagnetic spectrum.
Positions of these absorption bands in the spectrum were typical for derivatives of (substituted) phenylcarbamic acid and the bands were assigned as first local excitation (λ3), charge-transfer (λ2 (Ch-T)) and second local excitation (λ1) absorption maxima, respectively. The λ1 and λ2 (Ch-T) maxima of 2-alkoxy substituted compounds 1a–d and 1i–l were slightly lower compared to those of their 3-alkoxy substituted positional isomers 1e–h and 1m–p (Table 1), respectively.
The UV/Vis spectra of methanolic solutions of analyzed compounds 1a–p (c = 8.0 × 10^−5 M) were observed on the 8452A Diode Array spectrophotometer HP-8452A (Hewlett-Packard, Palo Alto, CA, USA) at 21 °C. Methanol for UV-spectroscopy (Merck, Darmstadt, Germany) was used for preparation of these solutions. Results of the UV/Vis analyses were collected and stored digitally using the ChemStation controller software (Agilent Technologies, Waldbronn, Germany). The HP-8452A apparatus measured a complete range of compounds’ spectrum from 190 nm to 820 nm.
The log ε values for presently observed absorption maxima were calculated following the Lambert-Beer’s law, which was discussed in [35], for example, and expressed by Equation (16):A = ε × c × l(16) where the A parameter represented absorbance of a compound’s solution, the ε descriptor was a molar absorption coefficient (in L/mol/cm units) and l was path length (in cm units).

[4] = lipophilicity by isocratic RP-HPLC (log k, k, log kw, S); assay type: physicochemical; conditions: for log kw: extrapolated to 100% water from log k versus ϕM; for S (slope): slope of log k versus ϕM regression
Text: Octadecyl-functionalized silica gel was currently used as a stationary phase (SPh) and a […] of two solvents at different volume ratios modified retention properties of the SPh. Liquid binary mixtures of methanol (MeOH) with water were employed as mobile phases (MPhs) in the isocratic RP-HPLC. The MeOH modifier was preferred because of similarity of both observed and extrapolated lipophilicity parameters with the ones determined in the octan-1-ol/water partition system, considering also sensitivity to H-bond donor properties of investigated compounds [41].
The modifier was applied in different volume concentrations, which varied from […] (v/v) with 5% increments. This interval was chosen due to very high lipophilicity of investigated salts. Practically, lower volume concentration of MeOH, i.e., less than 85% (v/v) in used MPhs, caused uncertainty of retention times (tr) due to notable peaks broadening, especially within subsets 1i–l and 1m–p. […] The highest tr parameters were found for the molecules 1k (tr = 47.108 min) and 1l (tr = 70.012 min) in the MPh containing 85% proportion (v/v) of MeOH (Table 2).
According to the authors’ opinions based on systematic scientific literature survey, a current research paper was the first, which aimed the log kw parameters of 2-/3-alkoxyphenylcarbamic acid derivatives containing two centers of protonation. The log kw values were extrapolated from intercepts of a relationship between log k and volume fraction of the MPh modifier (ϕM) using the Snyder–Soczewiński linear solvent strength model. The relationship was justified by R > 0.9900, Adj. R^2 > 0.9750 as well as F > 180.00 for calculation of particular log kw parameters (Table 3).
The HPLC separation module Waters e2695 equipped with a Waters 2996 PDA Detector (Waters Corp., Milford, MA, USA) and chromatographic column Symmetry C18 × 5 μm, 4.6 × 250 mm, Part No. W21751W016 (Waters Corp.) were used for estimation of lipophilic properties of the compounds 1a–p at 21 °C.
Isocratic elution was carried out using mobile phases consisting of methanol p.a. (MeOH; Honeywell, Paris, France) and purified water in various volume ratios (80:20, 85:15, 90:10, 95:5 (v/v) and pure MeOH, respectively). Distilled water (CentralChem, Bratislava, Slovak Republic) was purified by the Aquinity2 P10 ultra-pure water system for production of ultra-pure water with an integrated 10 L permeate tank (membraPure, Hennigsdorf, Germany).
Total flow of the column was 1.0 mL/min, injection volume was 4 μL and column temperature was set to 40 °C. The detection wavelengths varying from 236 nm to 238 nm were chosen for current experimental procedures.
Lipophilicity of the compounds 1a–p was determined by reversed-phase high-performance liquid chromatography (RP-HPLC). Methanol (MeOH)/water mobile phases with varying volume ratio of the organic modifier and water (80:20, 85:15, 90:10, 95:5 (v/v) and pure MeOH, respectively) were chosen.
A methanolic solution of potassium iodine was used for dead time (td) determination. Retention factors (capacity factors; k) were calculated according to Equation (17):k = (tr− td)/td(17) where tr was retention time of a solute (in min), the td parameter denoted dead time of potassium iodine, an unretained analyte (in min).
The observed retention (tr) and dead (td) times were means of three independent determinations. Average td values of potassium iodine in used MPhs were as follows: 2.237 min (MeOH/water ratio (v/v) was 80:20), 2.245 min (85:15), 2.245 min (90:10), 2.228 min (95:5) and 2.210 min (pure MeOH), respectively. […]

[5] = 7-day cultivation, 37 °C, read-out: MIC MK DSM 7-d
[6] = mobile phase MeOH/water 80:20 (v/v)
[7] = mobile phase MeOH/water 85:15 (v/v)
[8] = mobile phase MeOH/water 90:10 (v/v)
[9] = mobile phase MeOH/water 95:5 (v/v)
[10] = read-out: MIC MK DSM 7-d, 7-day cultivation, 37 °C

Row | SMILES | MIC [1, 5] [µM] | surface tension γ (relative surface activity) [2] [N/m] | log ε2 (Ch-T) [3] | log ε1 [3] | log ε3 [3] | log kw [4] | k (retention factor) [4, 6] | log k [4, 6] | k (retention factor) [4, 7] | log k [4, 7] | k (retention factor) [4, 8] | log k [4, 8] | k (retention factor) [4, 9] | log k [4, 9] | k (retention factor) ([4]; mobile phase pure MeOH) | log k ([4]; mobile phase pure MeOH) | S (slope) [4] | MIC [1, 10] [µM]
1 | CCCCOc1ccccc1NC(=O)OC(CN(CCC)CCC)CN1CCCC1 (centres unmarked) [1a] | 53 (≈ 22.2 µg/mL) | 0.06464 | 4.19 | 4.51 | 3.63 | 3.7688 | 5.2060 | 0.7165 | 3.7636 | 0.5756 | 2.4877 | 0.3958 | 1.5878 | 0.2008 | 0.9114 | −0.0403 | 3.7768 | 
2 | CCCCCOc1ccccc1NC(=O)OC(CN(CCC)CCC)CN1CCCC1 (centres unmarked) [1b] | 26.1 (≈ 11.3 µg/mL) | 0.06366 | 4.05 | 4.39 | 3.51 | 4.0454 | 6.6904 | 0.8254 | 4.6302 | 0.6656 | 3.2092 | 0.5064 | 1.9235 | 0.2841 | 1.0479 | 0.0203 | 3.9834 | 
3 | CCCCCCOc1ccccc1NC(=O)OC(CN(CCC)CCC)CN1CCCC1 (centres unmarked) [1c] | 12.7 (≈ 5.69 µg/mL) | 0.06222 | 4.52 | 4.58 | 3.49 | 4.6049 | 10.4858 | 1.0206 | 6.5494 | 0.8162 | 4.0300 | 0.6053 | 2.3351 | 0.3683 | 1.3449 | 0.1287 | 4.4634 | 
4 | CCCCCCCOc1ccccc1NC(=O)OC(CN(CCC)CCC)CN1CCCC1.Cl.Cl (centres unmarked) [1d, 1-[2-[({[2-(heptyl-oxy)phenyl]amino}carbonyl)oxy]-3-(dipropylammonio)propyl]pyrrolidinium dichloride] |  | 0.05985 | 4.08 | 4.43 | 3.55 | 4.9487 | 12.8588 | 1.1092 | 7.7304 | 0.8882 | 5.0373 | 0.7022 | 2.5421 | 0.4052 | 1.4365 | 0.1573 | 4.7736 | 6.2
5 | CCCCOc1cccc(NC(=O)OC(CN(CCC)CCC)CN2CCCC2)c1 (centres unmarked) [1e] | 16.2 (≈ 6.8 µg/mL) | 0.06316 | 4.24 | 4.65 | 3.59 | 4.0258 | 3.6174 | 0.5584 | 2.0811 | 0.3183 | 1.4054 | 0.1478 | 0.7155 | −0.1454 | 0.5063 | −0.2956 | 4.3434 | 
6 | CCCCCOc1cccc(NC(=O)OC(CN(CCC)CCC)CN2CCCC2)c1.Cl.Cl (centres unmarked) [1f, 1-[2-[({[3-(pentyloxy)phenyl]amino}carbonyl)oxy]-3-(dipropylammonio)propyl]-pyrrolidinium dichloride] |  | 0.06285 | 4.27 | 4.55 | 3.62 | 4.6722 | 4.5436 | 0.6574 | 3.0981 | 0.4911 | 1.7972 | 0.2546 | 0.8052 | −0.0941 | 0.5113 | −0.2913 | 4.9652 | 7.9
7 | CCCCCCOc1cccc(NC(=O)OC(CN(CCC)CCC)CN2CCCC2)c1 (centres unmarked) [1g] | 3.8 (≈ 1.7 µg/mL) | 0.06105 | 4.13 | 4.54 | 3.48 | 4.9446 | 6.6896 | 0.8254 | 4.0776 | 0.6104 | 2.3329 | 0.3679 | 1.3128 | 0.1182 | 0.6213 | −0.2067 | 5.1128 | 
